Experimental data taken from patent US8642559B2, “C-terminal domain truncation of mGluR1α by calpain and uses thereof” (priority 2006, dated 2014).
“Also recorded” adds a separate entry of the source.

Columns and labels:
[1] = test system: mGluR1α; assay: Glutamate/NMDA-induced C-terminal truncation of mGluR1α in cultured cortical neurons (immunoblot); format: cell-based
Excerpt: Total cell lysates were separated by SDS-PAGE and probed with an antibody against the carboxyl terminus (residue 1142-1160) of mGluR1α. […] Total cell lysates were probed with an anti-myc antibody. […] Total cell lysates were probed with antibodies against mGluR5, G1uR2/3 and VGluT1 respectively.
Total cell lysate was collected immediately after treatment and subjected to SDS-PAGE and immunoblotting with an antibody against the carboxyl terminus (residues 1142-1160) of mGluR1α (FIG. 2A). […] Neurons were transfected with a calcium phosphate precipitation method modified for high transfection rate (Jian et al., Gene Ther 11:1301-1311, 2004).
Cortical neurons were treated with NMDA at the indicated concentrations for 1 h or treated with NMDA (10 μM) for the indicated times. Total cell lysates were separated by SDS-PAGE and probed with antibodies against mGluR1α1142-1160, Results were normalized over control values and are means±s.e.m. of 4 experiments.
To determine whether activation of mGluR1α itself was required for the truncation, two distinct mGluR1α antagonists were applied.
To further characterize NMDA-induced mGluR1α truncation, the concentration- and time-dependencies of the effects of NMDA were studied. Cortical neurons were first incubated with different concentrations of NMDA for a fixed period of time (1 hour) (FIG. 3F). […] In a following experiment, cortical neurons were incubated with 10 μM NMDA for different durations ranging from 1 to 60 min (FIG. 3G).
Cortical neurons were treated with NMDA (10 μM, 1 h). Total cell lysates were separated by SDS-PAGE and probed with antibodies against spectrin and mGluR1α1142-1160, respectively. Only the degradation bands of spectrin (spectrin DB, at ˜145 KD) are shown. […] In FIG. 4C, purified myc-mGluR1α was digested with μ-calpain at the indicated concentrations (U/ml) for 30 min. The digested material was processed for SDS-PAGE and subjected to silver staining or immunoblots with anti-myc or anti-mGluR1α1142-1160 antibodies. […] The 1st lane was the myc-mGluR1α immunoprecipitated from 293 cells; the 2nd and 3rd lanes were immunoprecipitated myc-mGluR1α digested with indicated concentration of calpain. […] FIG. 4F is the alignment of mGluR1 (902-941) and mGluR5 (889-927) surrounding the calpain cleavage site.
In this set of experiments, we determined which protease(s) mediated NMDA-induced truncation of mGluR1α. […] Cortical neurons were pretreated with a calpain inhibitor, the cell-permeable calpain-inhibitor III, or the caspase inhibitor cpm-VAD-CHO for 2 hours and then incubated in the absence or presence of 100 µM NMDA for 1 hour. […] To further confirm calpain activation by NMDA under our experimental conditions, we determined the levels of the calpain-specific spectrin degradation fragments.

[2] = test system: myc-mGluR1α; assay: Targeting of myc-mGluR1α in transfected cortical neurons after NMDA (immunostaining); format: cell-based; conditions: NMDA 50 μM, 1 hour; 124 out of 367 neurons
Description: In FIG. 7A, cortical neurons were co-transfected with DsRED and myc-mGluR1α. After 48 h, neurons were fixed and stained with anti-myc and anti-DsRED antibodies. Some of the neurons were pre-treated with NMDA (50 μM, 1 h), and recovered for 3 h after washing out NMDA before fixation. Myc-mGluR1α (upper panel) was absent in axons (arrowhead) under control conditions. After pre-treatment with NMDA (lower panel), staining of myc-mGluR1α appeared in the proximal segment of axons. In FIG. 7B, cortical neurons were co-transfected with DsRED and myc-mGluR1α. After 48 h, neurons were fixed and stained with anti-DsRED and anti-mGluR1α1142-1160 antibodies with (lower panel) or without (upper panel) pretreatment with NMDA. Staining for mGluR1α was absent from axons in both conditions. In FIG. 7C, cortical neurons were co-transfected with DsRED and myc-mGluR1α936Δ. After 48 h, neurons were fixed and stained with anti-myc and anti-DsRED antibodies. […]
Previous studies have shown that the C-terminus domain of mGluR1α is crucial for its dendritic localization. […] But in ˜34% of neurons treated with NMDA (124 out of 367 neurons counted), the N-terminal fragment of wild-type mGluR1α could be detected in axons, especially in the proximal segment, whereas immunoreactivity against the C-terminus of mGluR1α was still restricted to dendrites (FIG. 7B).

[3] = test system: cortical neurons; assay: NMDA/DHPG neuronal toxicity in cortical neurons (EthD-1/Calcein AM live/dead); format: cell-based; conditions: 100 μM NMDA for 1 hour; 24 hours after treatment
Excerpt: In FIGS. 8a and b, cortical neurons were co-transfected with green fluorescent protein (GFP) and vector DNA, myc-mGluR1α or myc-mGluR1α936Δ, respectively. […] Twelve hours later, neurons were stained with EthD-1 to label dead cells. Arrowheads in FIG. 8a indicate EthD-1 positive GFP-expressing neurons. * p<0.05. FIGS. 8c and d are representative photos and bar graphs showing differential roles of endogenous mGluR1 in neuronal toxicity before and after NMDA-induced truncation. Cortical neurons were treated as indicated and were stained with EthD-1 (for dead cells) and calcein AM (for live cells) 24 hours later. * p<0.001.
We then tested whether calpain-mediated truncation of endogenous mGluR1α also alters its roles in excitotoxicity. We used NMDA to elicit mGluR1α truncation and evaluated the roles of mGluR1 in neuronal toxicity by applying DHPG before and after truncation. Fourteen DIV cortical neurons cultured on 18×18 mm coverslips were divided into 6 groups, which received the following treatments, respectively: 1) “Control”: vehicle; 2) “NMDA”: 100 μM NMDA for 1 hour; 3) “DHPG before NMDA”: DHPG, 100 μM, for 1 hour, followed by 100 μM NMDA for 1 hour; 4) “DHPG after NMDA”: NMDA, 100 μM, for 1 hour, followed by 100 μM DHPG for 1 hour; 5) “DHPG+LY before NMDA”: 100 μM DHPG was co-applied with 100 μM LY367385 for 1 hour and followed by 100 μM NMDA for 1 hour; 6) “DHPG+LY after NMDA”: NMDA 100 μM for 1 hour, followed by 100 μM DHPG co-applied with 100 μM LY367385. Twenty-four hours after treatment, all neurons were stained for 20 minutes with 0.5 μM EthD-1 to label dead cells and 2 μM Calcein AM to label live cells. After three washes with culture medium, coverslips were mounted and one microscopy photo was immediately taken from the center area of each coverslip. EthD-1 and Calcein AM positive cells on each photo were then counted. The percentage of cell death was calculated as the number of EthD-1 positive cell/(number of EthD-1 positive cell+number of Calcein AM positive cell)*100%.

[4] = test system: cultured neurons; assay: Blockade of NMDA neurotoxicity in cultured neurons (live/dead cell assay); format: cell-based; conditions: peptide 8 μM, pretreated 90 min; NMDA 50 μM 1 h; analyzed 12 h later
Description: In this figure, cultured neurons were pretreated with the tat-peptide for 90 min. They were then treated with NMDA (50 μM) for 1 h. They were analyzed 12 h later by live/dead cell assay (0.5 μM EthD-1 and 2 μM Calcein AM).

[5] = test system: mGluR1α; assay: In vivo truncation of mGluR1α in hippocampus after kainic acid injection; conditions: peptide i.p. 90 min before kainic acid 30 mg/kg s.c., mice
Description: (§1) The tat-peptide was injected i.p. 90 min before kainic acid injection. Note that the peptide had no effect on seizure intensity (bottom left).
The objective of this set of experiments was to verify that the feedback mechanism of the present invention could take place in vivo and participate in excitotoxicity. We used the kainic acid model of excitotoxicity, as this model has been widely used to study the mechanisms underlying in vivo excitotoxicity (Wang et al. Mol Neurobiol 31:3-16, 2005). Mice were injected with kainic acid and sacrificed at different times after injection. Levels of mGluR1α were determined in hippocampus with both Western blots and immunohistochemistry (FIG. 10).

[6] = test system: hippocampal neurons; assay: Kainic acid-induced neuronal damage (silver staining) and seizures in mice; format: in vivo
Description: as §1
They were sacrificed after 7 days and brains processed for silver staining, a marker of cell damage. Note the heavy labeling of the pyramidal cell layer in the KA alone group.
The effect of the tat-mGluR1 peptide on kainic acid-induced neuronal damage was also evaluated.

[7] = test system: mGluR1; assay: Brain membranes treated with purified calpain and calcium: mGluR1 truncation; format: biochemical; conditions: purified calpain, calcium
Description: (§2) As previously mentioned, calpain inhibitors were previously shown to exert neuroprotective effects in some models of neurodegeneration, and it could be argued that the effects of the tat-mGluR1 peptide we observed were due to some calpain inhibitor effects of the peptide. However, the inventors of the present invention have discovered that this is not likely the case. In particular, when brain membranes were treated with purified calpain in the presence of calcium, truncation of both mGluR1 and spectrin was observed. […] The inventors believe that the peptide acts as a calpain substrate competing with mGluR1 for calpain. The selective protection of tat-mGluR1 has the advantage that it may act as a selective blocking agent without disrupting calpain's other enzymatic activities. Thus, a blocking agent of the present invention will have the advantage of having reduced side-effect profile than calpain inhibitors.

[8] = test system: spectrin; assay: Brain membranes treated with purified calpain and calcium: spectrin degradation; format: biochemical; conditions: purified calpain, calcium
Description: as §2

[9] = test system: cultured hippocampal slices; assay: OGD-induced cell death in cultured hippocampal slices (LDH release, PI uptake); format: cell-based; conditions: 10 μM for 3 h before and during OGD (30 min); 3 h and 24 h after OGD
Description: Cultured slices were subjected to OGD for 30 min, and returned to normal glucose and oxygen conditions for 24 h. Neuronal damage was assessed by the propidium iodide (PI) uptake method, which labels damaged cells (a, b), and by LDH release in culture medium (c).
We used a well-known in vitro stroke model, combined oxygen/glucose deprivation in cultured hippocampal slices, to test the idea that the mechanism we have proposed, i.e., calpain-mediated truncation of mGluR1, accounts for neuronal death in stroke. Furthermore, we tested the neuroprotective effects of the tat-mGluR1 peptide in this stroke model. In this model, cultured hippocampal slices are treated for various periods of time (30-60 min) by changing the cultured medium to a medium without glucose and replacing the normal air/5% CO2 with nitrogen. After this period of time, slices are returned to normal glucose-containing medium and exposed to air/5% CO2 and are cultured for again various periods of time. Cell death is evaluated by measuring the amount of LDH release in the medium at various times, as well as by the extent of Propidium Iodide (PI) uptake in the cells (LDH release in the medium is an index of membrane damage, as LDH is a cytoplasmic enzyme; likewise, PI is generally not taken up by cells, except if the cell membrane is severely compromised).

[10] = test system: mGluR1α; assay: OGD-induced mGluR1 truncation in cultured hippocampal slices (immunoblot); format: cell-based; conditions: longer OGD (50-min), 6 or 24 hours recovery
Description: Cultured hippocampal slices were subjected to 50-min OGD and returned to normal culture condition for another 6 or 24 hours.

Molecule	minimum time required to induce truncation ([1]; 10 μM NMDA)	treatment time after which truncation was maximal ([1]; 10 μM NMDA)	EC50 ([1]; 1 hour incubation)	minimum concentration required to induce a significant mGluR1α truncation ([1]; 1 hour incubation)	neurons with N-terminal fragment of mGluR1α detected in axons [2]	cell death [3]	prevention of NMDA-mediated neurotoxicity [4]	reduction of kainic acid-induced mGluR1 truncation [5]	effect on kainic acid-induced neuronal damage (silver staining of pyramidal cell layer) ([6]; peptide 100 mg/kg i.p. 90 min before kainic acid 30 mg/kg s.c., 7 days)	effect on severity or duration of kainic acid-induced seizures ([6]; peptide i.p. 90 min before kainic acid)	prevention of calpain-mediated mGluR1 truncation [7]	prevention of calpain-mediated spectrin degradation [8]	neuroprotection assessed with LDH release [9]	neuroprotection assessed with PI uptake [9]	block of OGD-induced mGluR1 truncation [10]	block of OGD-induced mGluR1 truncation ([10]; listed as TAT-mGluR1α fusion peptide)
CN[C@H](CC(=O)O)C(=O)O [NMDA]	5 min	20 min	~10 µM	10 µM	~34%	37%	–	–	–	–	–	–	–	–	–	–
YGRKKRRQRRRVIKPLTKSYQGSGK [tat-mGluR1 peptide]	–	–	–	–	–	–	almost completely prevented	significantly reduced	dramatically reduced; also recorded: significantly reduced	did not influence	prevented	not	complete neuroprotection	complete neuroprotection	almost completely blocked	partially restored
